{"source": "patent US20150105252A1", "about": "“SUBSTITUTED PYRAZOLES AS HERBICIDES” (E I DU PONT DE NEMOURS AND COMPANY, priority 2013, published 2015)", "key": {"velvetleaf [1]": {"system": "velvetleaf", "test": "Test A preemergence", "format": "in vivo, Abutilon theophrasti", "conditions": "Preemergence, 1000 g ai/ha; 0 to 100 scale, 0 no effect, 100 complete control", "text": "(§1) Seeds of plant species selected from barnyardgrass (Echinochloa crus-galli), kochia (Kochia scoparia), common ragweed (Ambrosia elation), Italian ryegrass (Lolium multiflorum), crabgrass, large (large crabgrass, Digitaria sanguinalis), foxtail, giant (giant foxtail, Setaria faberii), morningglory (Ipomoea spp.), pigweed (redroot pigweed, Amaranthus retroflexus), velvetleaf (Abutilon theophrasti), wheat (Triticum aestivum), and corn (Zea mays) were planted into a blend of loam soil and sand and treated preemergence with a directed soil spray using test chemicals formulated in a non-phytotoxic solvent mixture which included a surfactant.\n(§2) At the same time, plants selected from these crop and weed species and also blackgrass (Alopecurus myosuroides), and galium (catchweed bedstraw, Galium aparine) were planted in pots containing the same blend of loam soil and sand and treated with postemergence applications of test chemicals formulated in the same manner. Plants ranged in height from 2 to 10 cm and were in the one- to two-leaf stage for the postemergence treatment. Treated plants and untreated controls were maintained in a greenhouse for approximately 10 days, after which time all treated plants were compared to untreated controls and visually evaluated for injury. Plant response ratings, summarized in Table A, are based on a 0 to 100 scale where 0 is no effect and 100 is complete control. A dash (-) response means no test result."}, "crabgrass, large [2]": {"system": "crabgrass, large", "test": "Test A postemergence", "format": "in vivo, Digitaria sanguinalis", "conditions": "Postemergence, 1000 g ai/ha; visual rating after approx. 10 days, 0 to 100 scale (0 no effect, 100 complete control)", "text": "as §1, §2"}, "morningglory [3]": {"system": "morningglory", "test": "Test A postemergence", "format": "in vivo, Ipomoea spp.", "conditions": "Postemergence, 1000 g ai/ha; visual rating after approx. 10 days, 0 to 100 scale (0 no effect, 100 complete control)", "in_short": "(§3)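 Scoring was visual, on a scale where 100 means complete control and 0 means no effect, comparing treated with untreated plants around 10 days post-application. Compounds in surfactant-containing non-phytotoxic solvent were sprayed onto soil preemergence or onto one- to two-leaf seedlings (2–10 cm) postemergence.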"}, "wheat [4]": {"system": "wheat", "test": "Test A preemergence", "format": "in vivo, Triticum aestivum", "conditions": "Preemergence, 1000 g ai/ha; 0 to 100 scale, 0 no effect, 100 complete control", "text": "as §1, §2"}, "morningglory [5]": {"system": "morningglory", "test": "Test A preemergence", "format": "in vivo, Ipomoea spp.", "conditions": "Preemergence, 1000 g ai/ha; 0 to 100 scale, 0 no effect, 100 complete control", "in_short": "as §3"}, "crabgrass, large [6]": {"system": "crabgrass, large", "test": "Test A preemergence", "format": "in vivo, Digitaria sanguinalis", "conditions": "Preemergence, 1000 g ai/ha; 0 to 100 scale, 0 no effect, 100 complete control", "in_short": "as §3"}, "pigweed [7]": {"system": "pigweed", "test": "Test A preemergence", "format": "in vivo, Amaranthus retroflexus", "conditions": "Preemergence, 1000 g ai/ha; 0 to 100 scale, 0 no effect, 100 complete control", "text": "as §1, §2"}, "corn [8]": {"system": "corn", "test": "Test A preemergence", "format": "in vivo, Zea mays", "conditions": "Preemergence, 1000 g ai/ha; 0 to 100 scale, 0 no effect, 100 complete control", "text": "as §1, §2"}, "velvetleaf [9]": {"system": "velvetleaf", "test": "Test A postemergence", "format": "in vivo, Abutilon theophrasti", "conditions": "Postemergence, 1000 g ai/ha; visual rating after approx. 10 days, 0 to 100 scale (0 no effect, 100 complete control)", "text": "as §1, §2"}, "pigweed [10]": {"system": "pigweed", "test": "Test A postemergence", "format": "in vivo, Amaranthus retroflexus", "conditions": "Postemergence, 1000 g ai/ha; visual rating after approx. 10 days, 0 to 100 scale (0 no effect, 100 complete control)", "text": "as §1, §2"}, "foxtail, giant [11]": {"system": "foxtail, giant", "test": "Test A preemergence", "format": "in vivo, Setaria faberii", "conditions": "Preemergence, 1000 g ai/ha; 0 to 100 scale, 0 no effect, 100 complete control", "text": "as §1, §2"}, "barnyardgrass [12]": {"system": "barnyardgrass", "test": "Test A postemergence", "format": "in vivo, Echinochloa crus-galli", "conditions": "Postemergence, 1000 g ai/ha; visual rating after approx. 10 days, 0 to 100 scale (0 no effect, 100 complete control)", "in_short": "as §3"}, "corn [13]": {"system": "corn", "test": "Test A postemergence", "format": "in vivo, Zea mays", "conditions": "Postemergence, 1000 g ai/ha; visual rating after approx. 10 days, 0 to 100 scale (0 no effect, 100 complete control)", "in_short": "as §3"}, "barnyardgrass [14]": {"system": "barnyardgrass", "test": "Test A preemergence", "format": "in vivo, Echinochloa crus-galli", "conditions": "Preemergence, 1000 g ai/ha; 0 to 100 scale, 0 no effect, 100 complete control", "in_short": "as §3"}, "foxtail, giant [15]": {"system": "foxtail, giant", "test": "Test A postemergence", "format": "in vivo, Setaria faberii", "conditions": "Postemergence, 1000 g ai/ha; visual rating after approx. 10 days, 0 to 100 scale (0 no effect, 100 complete control)", "text": "as §1, §2"}, "wheat [16]": {"system": "wheat", "test": "Test A postemergence", "format": "in vivo, Triticum aestivum", "conditions": "Postemergence, 1000 g ai/ha; visual rating after approx. 10 days, 0 to 100 scale (0 no effect, 100 complete control)", "text": "as §1, §2"}}}
{"smiles": "CCc1cc(C(=O)NC2CC2)nn1Cc1cccc(OC(F)(F)F)c1", "note": "[Compound 26]", "values": [{"measurement": "Velvetleaf plant response rating", "setting": "velvetleaf [1]", "value": 100}, {"measurement": "Crabgrass, Large plant response rating", "setting": "crabgrass, large [2]", "value": 90}, {"measurement": "Morningglory plant response rating", "setting": "morningglory [3]", "value": 100}, {"measurement": "Wheat plant response rating", "setting": "wheat [4]", "value": 40}, {"measurement": "Morningglory plant response rating", "setting": "morningglory [5]", "value": 90}, {"measurement": "Crabgrass, Large plant response rating", "setting": "crabgrass, large [6]", "value": 100}, {"measurement": "Pigweed plant response rating", "setting": "pigweed [7]", "value": 100}, {"measurement": "Corn plant response rating", "setting": "corn [8]", "value": 40}, {"measurement": "Velvetleaf plant response rating", "setting": "velvetleaf [9]", "value": 100}, {"measurement": "Pigweed plant response rating", "setting": "pigweed [10]", "value": 100}, {"measurement": "Foxtail, Giant plant response rating", "setting": "foxtail, giant [11]", "value": 100}, {"measurement": "Barnyardgrass plant response rating", "setting": "barnyardgrass [12]", "value": 70}, {"measurement": "Corn plant response rating", "setting": "corn [13]", "value": 70}, {"measurement": "Barnyardgrass plant response rating", "setting": "barnyardgrass [14]", "value": 80}, {"measurement": "Foxtail, Giant plant response rating", "setting": "foxtail, giant [15]", "value": 100}, {"measurement": "Wheat plant response rating", "setting": "wheat [16]", "value": 50}]}
{"smiles": "O=C(NCC(F)(F)F)c1cc(C2CC2)n(Cc2cccc(OC(F)(F)F)c2)n1", "note": "[Compound 36]", "values": [{"measurement": "Velvetleaf plant response rating", "setting": "velvetleaf [1]", "value": 0}, {"measurement": "Crabgrass, Large plant response rating", "setting": "crabgrass, large [2]", "value": 30}, {"measurement": "Morningglory plant response rating", "setting": "morningglory [3]", "value": 90}, {"measurement": "Wheat plant response rating", "setting": "wheat [4]", "value": 0}, {"measurement": "Morningglory plant response rating", "setting": "morningglory [5]", "value": 0}, {"measurement": "Crabgrass, Large plant response rating", "setting": "crabgrass, large [6]", "value": 20}, {"measurement": "Pigweed plant response rating", "setting": "pigweed [7]", "value": 30}, {"measurement": "Corn plant response rating", "setting": "corn [8]", "value": 0}, {"measurement": "Velvetleaf plant response rating", "setting": "velvetleaf [9]", "value": 60}, {"measurement": "Pigweed plant response rating", "setting": "pigweed [10]", "value": 90}, {"measurement": "Foxtail, Giant plant response rating", "setting": "foxtail, giant [11]", "value": 20}, {"measurement": "Barnyardgrass plant response rating", "setting": "barnyardgrass [12]", "value": 20}, {"measurement": "Corn plant response rating", "setting": "corn [13]", "value": 20}, {"measurement": "Barnyardgrass plant response rating", "setting": "barnyardgrass [14]", "value": 0}, {"measurement": "Foxtail, Giant plant response rating", "setting": "foxtail, giant [15]", "value": 30}, {"measurement": "Wheat plant response rating", "setting": "wheat [16]", "value": 0}]}
{"smiles": "O=C(NC1CC1)c1cc(C2CC2)n(Cc2cccc(OC(F)(F)F)c2)n1", "note": "[Compound 37]", "values": [{"measurement": "Velvetleaf plant response rating", "setting": "velvetleaf [1]", "value": 0}, {"measurement": "Crabgrass, Large plant response rating", "setting": "crabgrass, large [2]", "value": 20}, {"measurement": "Morningglory plant response rating", "setting": "morningglory [3]", "value": 80}, {"measurement": "Wheat plant response rating", "setting": "wheat [4]", "value": 0}, {"measurement": "Morningglory plant response rating", "setting": "morningglory [5]", "value": 0}, {"measurement": "Crabgrass, Large plant response rating", "setting": "crabgrass, large [6]", "value": 40}, {"measurement": "Pigweed plant response rating", "setting": "pigweed [7]", "value": 20}, {"measurement": "Corn plant response rating", "setting": "corn [8]", "value": 0}, {"measurement": "Velvetleaf plant response rating", "setting": "velvetleaf [9]", "value": 70}, {"measurement": "Pigweed plant response rating", "setting": "pigweed [10]", "value": 100}, {"measurement": "Foxtail, Giant plant response rating", "setting": "foxtail, giant [11]", "value": 30}, {"measurement": "Barnyardgrass plant response rating", "setting": "barnyardgrass [12]", "value": 10}, {"measurement": "Corn plant response rating", "setting": "corn [13]", "value": 30}, {"measurement": "Barnyardgrass plant response rating", "setting": "barnyardgrass [14]", "value": 0}, {"measurement": "Foxtail, Giant plant response rating", "setting": "foxtail, giant [15]", "value": 10}, {"measurement": "Wheat plant response rating", "setting": "wheat [16]", "value": 20}]}
{"smiles": "CCCNC(=O)c1cc(C2CC2)n(Cc2cccc(OC(F)(F)F)c2)n1", "note": "[Compound 38]", "values": [{"measurement": "Velvetleaf plant response rating", "setting": "velvetleaf [1]", "value": 0}, {"measurement": "Crabgrass, Large plant response rating", "setting": "crabgrass, large [2]", "value": 10}, {"measurement": "Morningglory plant response rating", "setting": "morningglory [3]", "value": 100}, {"measurement": "Wheat plant response rating", "setting": "wheat [4]", "value": 0}, {"measurement": "Morningglory plant response rating", "setting": "morningglory [5]", "value": 0}, {"measurement": "Crabgrass, Large plant response rating", "setting": "crabgrass, large [6]", "value": 20}, {"measurement": "Pigweed plant response rating", "setting": "pigweed [7]", "value": 0}, {"measurement": "Corn plant response rating", "setting": "corn [8]", "value": 0}, {"measurement": "Velvetleaf plant response rating", "setting": "velvetleaf [9]", "value": 50}, {"measurement": "Pigweed plant response rating", "setting": "pigweed [10]", "value": 40}, {"measurement": "Foxtail, Giant plant response rating", "setting": "foxtail, giant [11]", "value": 0}, {"measurement": "Barnyardgrass plant response rating", "setting": "barnyardgrass [12]", "value": 10}, {"measurement": "Corn plant response rating", "setting": "corn [13]", "value": 30}, {"measurement": "Barnyardgrass plant response rating", "setting": "barnyardgrass [14]", "value": 0}, {"measurement": "Foxtail, Giant plant response rating", "setting": "foxtail, giant [15]", "value": 10}, {"measurement": "Wheat plant response rating", "setting": "wheat [16]", "value": 0}]}
{"smiles": "CCNC(=O)c1cc(C2CC2)n(Cc2cccc(OC(F)(F)F)c2)n1", "note": "[Compound 39]", "values": [{"measurement": "Velvetleaf plant response rating", "setting": "velvetleaf [1]", "value": 0}, {"measurement": "Crabgrass, Large plant response rating", "setting": "crabgrass, large [2]", "value": 10}, {"measurement": "Morningglory plant response rating", "setting": "morningglory [3]", "value": 60}, {"measurement": "Wheat plant response rating", "setting": "wheat [4]", "value": 0}, {"measurement": "Morningglory plant response rating", "setting": "morningglory [5]", "value": 0}, {"measurement": "Crabgrass, Large plant response rating", "setting": "crabgrass, large [6]", "value": 10}, {"measurement": "Pigweed plant response rating", "setting": "pigweed [7]", "value": 0}, {"measurement": "Corn plant response rating", "setting": "corn [8]", "value": 0}, {"measurement": "Velvetleaf plant response rating", "setting": "velvetleaf [9]", "value": 10}, {"measurement": "Pigweed plant response rating", "setting": "pigweed [10]", "value": 40}, {"measurement": "Foxtail, Giant plant response rating", "setting": "foxtail, giant [11]", "value": 0}, {"measurement": "Barnyardgrass plant response rating", "setting": "barnyardgrass [12]", "value": 10}, {"measurement": "Corn plant response rating", "setting": "corn [13]", "value": 10}, {"measurement": "Barnyardgrass plant response rating", "setting": "barnyardgrass [14]", "value": 0}, {"measurement": "Foxtail, Giant plant response rating", "setting": "foxtail, giant [15]", "value": 10}, {"measurement": "Wheat plant response rating", "setting": "wheat [16]", "value": 0}]}
